Data taken from patent US8232315B2, “Methods for treating drug addiction and improving addiction-related behavior” (SK Biopharmaceuticals Co., Ltd., priority 2009, dated 2012).
Entries after “also recorded” stand apart in the source; their conditions may differ. Where two headings read alike, the source gives them in different places.

How the values were obtained:
[1] = system: rhesus monkeys trained to self-administer cocaine; assay: Cocaine self-administration, dose-ranging studies with peak unit dose of i.v. cocaine and food components; type: in vivo, rhesus monkeys (Macaca mulatta)
Method: The test compound (O-carbamoyl-(D)-phenylalaminol) was tested for the effects on cocaine self-administration in rhesus monkeys. Rhesus monkeys were trained to self-administer cocaine (0.032 mg/kg/inj, i.v.) and 1 g banana-flavored food pellets during 2-hr experimental sessions in the Rapid Assessment Procedure. Each session consisted of four 20-min components of drug availability (100-min), each separated by a 5-min timeout period. The four components of drug availability were preceded and followed by […] components of food availability. During training, unit doses of cocaine were varied across components of the session (0.001-0.03 or 0.01-0.32 mg/kg/inj) to provide full dose effect curves for cocaine self-administration. The position and slope of the dose-effect curve varied among monkeys and, generally, was represented by an inverted-U shape function characteristic for cocaine self-administration under fixed-ratio schedules. In some sessions, the unit dose of cocaine at the peak of the dose-effect curve for i.v. self-administration (0.0032 or 0.032 mg/kg/inj) was kept constant across components of the session. After baseline cocaine dose-effect curves and the effects of peak dose availability throughout the session were stable, experiments with test compound were begun.
Two types of cocaine self-administration experiments were conducted to evaluate pretreatment with test compound: (1) test compound dose-ranging studies and (2) effects of a single dose of test compound on cocaine dose-effect curves. In initial dose-ranging experiments, test compound was studied in individual monkeys by administering i.m. doses of 10-32 mg/kg 30-min before the session.
Subjects. Five male rhesus monkeys (Macaca mulatta), 89B013, 96D155, 97D105, RQ22 15, and 93N082, were trained to respond for the delivery of 1-g banana pellets under a program of gradually increasing values of a fixed-ratio (FR) schedule until performance was maintained under the terminal FR 30 response schedule. Then, a double-lumen intravenous catheter was surgically implanted under aseptic-conditions in each monkey. Subsequently, monkeys were trained to respond for cocaine (see below). All monkeys were maintained under identical housing conditions as specified under contract DA-7-8073. Individual monkeys had visual, auditory, and olfactory contact with other monkeys, and several types of enrichment devices were provided in the home chamber.
Apparatus. All experimental equipment was identical to that used in our previously described drug self-administration studies. Briefly, each monkey was housed individually in a well-ventilated stainless steel chamber (64×64×79 cm). The home cages of all monkeys were modified to include an operant panel (28×28 cm) mounted on the front wall and fitted with response keys that could be trans-illuminated by red or green stimulus lights (LEDs). The operant panel also supported an externally-mounted pellet dispenser (Gerbrands, Model G5210) that delivered 1 gm fruit-flavored food pellets (P. J. Noyes Co., Lancaster, N.H.) to a food receptacle mounted on the cage beneath the operant response panel. Two syringe pumps (Model B5P-IE, Braintree Scientific, Braintree, Mass.; or Model 980210, Harvard Apparatus, South Natick, Mass.) were mounted above each cage for delivery of saline or drug solutions through the double-lumen intravenous catheters. Operation of the operant panels and data collection were accomplished with an LBM-compatible computer supplied by Med Associates, Inc., and located in an adjacent room. The experimental control hardware was supplied by Med Associates, Inc., and was controlled by customized-software written in MedState Notation.
Test sessions. A diagram of the Rapid Assessment Procedure is shown in the drawing. Test sessions occurred twice daily beginning at 11 a.m. and 3 p.m. […]

[2] = system: rats trained to discriminate cocaine (10 mg/kg) from saline; assay: Substitution for the discriminative stimulus effects of cocaine in rats (two-lever drug discrimination); type: in vivo, Sprague-Dawley rats; conditions: for ED50: Rattus norvegicus, linear regression against log10 doses from 10 to 100 mg/kg
Method: Test compound was tested for its ability to substitute for the discriminative stimulus effects of cocaine (10 mg/kg) in rats.
Six male Sprague-Dawley rats were trained to discriminate cocaine (10 mg/kg) from saline using a two-lever choice methodology. Food was available as a reinforcer under a fixed ratio 10 schedule when responding occurred on the injection appropriate lever. All tests occurred in standard, commercially available chambers (Coulbourn Instruments), using 45 mg food pellets (Bioserve) as reinforcers.
Training sessions occurred in a double alternating fashion, and tests were conducted between pairs of identical training sessions (i.e., between either two saline or two cocaine training sessions). Tests occurred only if, in the two preceding training sessions, subjects met the criteria of emitting 85% of responses on the injection correct lever for both the first reinforcer (first fixed ratio) and the total session. Test sessions lasted for twenty minutes, or until twenty reinforcers had been obtained. Doses of the test compound for which fewer, than three rats completed the first fixed ratio were not considered in the characterization of discriminative stimulus effects.
Intraperitoneal injections (1 ml/kg) of test compound, or its vehicle (0.9% saline), occurred 60 minutes prior to the start of the test session. A starting dose for test compound of 2.5 mg/kg was determined based upon data supplied by the project officer, and a dose range of 2.5 to 100 mg/kg was examined.

NC(=O)OC[C@H](N)Cc1ccccc1 [test compound, O-carbamoyl-(D)-phenylalaminol]
Effect on i.v. cocaine self-administration behavior ([1]; 10 mg/kg i.m., any of the four monkeys): did not alter
Effect on self-administration of the peak unit dose of i.v. cocaine ([1]; 10 mg/kg i.m., averaged for the group): did not have consistent effects; also recorded: without appreciable effect
Food-maintained performance, Food 1 and Food 2 ([1]; 10 mg/kg i.m., monkeys 89B013 and RQ2215): unchanged
Food-maintained responding, Food 2 ([1]; 10 mg/kg i.m., monkeys 96D155 and 93N082): decreased food-maintained responding
Food-maintained behavior, Food 1 ([1]; 18 mg/kg i.m., any monkey): not appreciably affected
Decrease in self-administration of the peak unit dose of i.v. cocaine ([1]; 18 mg/kg i.m., monkey 89B013): approximately 50%
Food-maintained behavior, Food 2 ([1]; 18 mg/kg i.m., monkeys 89B013 and 93N082): greatly decreased
Food-maintained behavior, Food 2 ([1]; 18 mg/kg i.m., monkeys 96D155 and RQ2215): did not change behavior
Effect on i.v. self-administration behavior ([1]; 18 mg/kg i.m., remaining three subjects): did not appreciably alter
Decrease in self-administration of the peak unit dose of i.v. cocaine ([1]; 32 mg/kg i.m. 30 min before session, averaged for the group of monkeys): approximately 50%
Effect on food-maintained behavior ([1]; 32 mg/kg i.m. (18 or 32 mg/kg), prior to or following cocaine components): without consistently disrupting food-maintained behavior; also recorded: did not consistently alter
Effect on self-administration of the peak unit dose of i.v. cocaine ([1]; 32 mg/kg i.m., averaged for the group): markedly decreased
Reduction of self-administration of the peak unit dose of i.v. cocaine ([1]; 32 mg/kg i.m., each of the three monkeys studied): ≥ 50%
Food-maintained performance, Food 1 and Food 2 ([1]; 32 mg/kg i.m., monkey 93N082): markedly decreased
Food-maintained responding, either food component ([1]; 32 mg/kg i.m., monkeys 96D155 and RQ2215): did not alter responding
Effect on food-maintained behavior ([1]; pretreatment doses 10-32 mg/kg i.m., averaged for the group, dose-ranging studies): only inconsistent effects
ED50 ([2]; i.p. 60 min before session, read-out: ED50, substitution for the discriminative stimulus effects of 10 mg/kg cocaine, total session): 37.4 mg/kg
ED50 ([2]; ip, read-out: ED50, substitution for cocaine, first reinforcer): 37.5 mg/kg
Substitution for the discriminative stimulus effects of 10 mg/kg cocaine ([2]; dose range 2.5 to 100 mg/kg i.p.): substituted fully; also recorded: fully substituted
Response rate, % of vehicle control, first reinforcer ([2]; following 100 mg/kg i.p.): 37%
Response rate, % of vehicle control, total session ([2]; following 100 mg/kg i.p.): 41%
